Measurements from ChEMBL document CHEMBL3244098, “Angiotensin II analogues. 13. Role of the hydroxyl group of position 4 tyrosine in pressor activity” (1979).
Numbered stars: 1 amine (or outer) side, 2 acyl side, 3 side chain; on linkers, the order of the positions; unused ones are H or OH. Square brackets hold non-standard residues; d marks the D form. Peptide text beside a SMILES is read from it. Phe(4-NO2) = N[C@@H](Cc1ccc([N+](=O)[O-])cc1)C(=O)O; Tyr(3,5-I2) = N[C@@H](Cc1cc(I)c(O)c(I)c1)C(=O)O; X3 = N#[N+]c1ccc(C[C@@H](N[*:1])C(=O)[*:2])cc1; X2 = Nc1c(I)cc(C[C@@H](N[*:1])C(=O)[*:2])cc1I; X4 = Cc1cc(C[C@@H](N[*:1])C(=O)[*:2])cc(C)c1O; X1 = Cc1cc(C[C@H](N[*:1])C(=O)[*:2])cc(C)c1O; Tyr(3-I) = N[C@@H](Cc1ccc(O)c(I)c1)C(=O)O; Phe(4-NH2) = Nc1ccc(C[C@H](N)C(=O)O)cc1; Sar = CNCC(=O)O

These compounds were tested against T1, Type-1 angiotensin II receptor (Oryctolagus cuniculus) (UniProt P34976) (assay: Binding affinity to angiotensin 2 receptor in rabbit aorta).
T1 sequence (whole entry): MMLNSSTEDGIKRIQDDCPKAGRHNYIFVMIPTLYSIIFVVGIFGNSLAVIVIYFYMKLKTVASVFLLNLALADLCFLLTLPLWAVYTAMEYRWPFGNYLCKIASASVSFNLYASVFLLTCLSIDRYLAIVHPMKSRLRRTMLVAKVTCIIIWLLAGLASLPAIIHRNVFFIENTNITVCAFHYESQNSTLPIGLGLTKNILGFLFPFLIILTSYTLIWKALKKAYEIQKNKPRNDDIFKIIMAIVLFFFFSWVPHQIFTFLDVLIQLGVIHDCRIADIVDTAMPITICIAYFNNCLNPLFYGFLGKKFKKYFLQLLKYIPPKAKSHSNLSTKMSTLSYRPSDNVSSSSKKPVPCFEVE

Activity [%]	Structure (SMILES)
15	CNCC(=O)N[C@@H](CCCNC(=N)N)C(=O)N[C@H](C(=O)N[C@H](Cc1ccc(N)cc1)C(=O)N[C@H](C(=O)N[C@@H](Cc1cnc[nH]1)C(=O)N1CCC[C@H]1C(=O)N[C@@H](Cc1ccccc1)C(=O)O)C(C)C)C(C)C
0.26	CNCC(=O)N[C@@H](CCCNC(=N)N)C(=O)N[C@H](C(=O)N[C@H](Cc1ccc(N=[N+]=[N-])cc1)C(=O)N[C@H](C(=O)N[C@@H](Cc1cnc[nH]1)C(=O)N1CCC[C@H]1C(=O)N[C@@H](Cc1ccccc1)C(=O)O)C(C)C)C(C)C
2.7	CNCC(=O)N[C@@H](CCCNC(=N)N)C(=O)N[C@H](C(=O)N[C@H](Cc1cc(I)c(N)c(I)c1)C(=O)N[C@H](C(=O)N[C@@H](Cc1cnc[nH]1)C(=O)N1CCC[C@H]1C(=O)N[C@@H](Cc1ccccc1)C(=O)O)C(C)C)C(C)C (H-[Sar]RV[X2]VHPF-OH)
0.66	CNCC(=O)N[C@@H](CCCNC(=N)N)C(=O)N[C@H](C(=O)N[C@H](Cc1ccc([N+]#N)cc1)C(=O)N[C@H](C(=O)N[C@@H](Cc1cnc[nH]1)C(=O)N1CCC[C@H]1C(=O)N[C@@H](Cc1ccccc1)C(=O)O)C(C)C)C(C)C (H-[Sar]RV[X3]VHPF-OH)

Species: Rattus norvegicus
Test: Pressor activity in nephrectomized, pentolinium treated rat relative to [Asn1,Val5]AII
Assay type: functional

Structure (SMILES)	Activity [%]
CC[C@H](C)[C@H](NC(=O)[C@H](Cc1ccccc1)NC(=O)[C@@H](NC(=O)[C@H](CCCNC(=N)N)NC(=O)[C@@H](N)CC(=O)O)C(C)C)C(=O)N[C@@H](Cc1cnc[nH]1)C(=O)N1CCC[C@H]1C(=O)N[C@@H](Cc1ccccc1)C(=O)O (H-DRVFIHPF-OH)	10
CC[C@H](C)[C@H](NC(=O)[C@H](Cc1ccc(N)cc1)NC(=O)[C@@H](NC(=O)[C@H](CCCNC(=N)N)NC(=O)[C@@H](N)CC(N)=O)C(C)C)C(=O)N[C@@H](Cc1cnc[nH]1)C(=O)N1CCC[C@H]1C(=O)N[C@@H](Cc1ccccc1)C(=O)O (H-NRV[Phe(4-NH2)]IHPF-OH)	24
CC[C@H](C)[C@H](NC(=O)[C@H](Cc1ccc([N+](=O)[O-])cc1)NC(=O)[C@@H](NC(=O)[C@H](CCCNC(=N)N)NC(=O)[C@@H](N)CC(N)=O)C(C)C)C(=O)N[C@@H](Cc1cnc[nH]1)C(=O)N1CCC[C@H]1C(=O)N[C@@H](Cc1ccccc1)C(=O)O (H-NRV[Phe(4-NO2)]IHPF-OH)	0.1
CC(C)[C@H](NC(=O)[C@H](CCCNC(=N)N)NC(=O)[C@@H](N)CC(N)=O)C(=O)N[C@@H](Cc1cc(I)c(O)c(I)c1)C(=O)N[C@H](C(=O)N[C@@H](Cc1cnc[nH]1)C(=O)N1CCC[C@H]1C(=O)N[C@@H](Cc1ccccc1)C(=O)O)C(C)C (H-NRV[Tyr(3,5-I2)]VHPF-OH)	13
CC(C)[C@H](NC(=O)[C@H](CCCNC(=N)N)NC(=O)[C@@H](N)CC(N)=O)C(=O)N[C@@H](Cc1ccc(O)c(I)c1)C(=O)N[C@H](C(=O)N[C@@H](Cc1cnc[nH]1)C(=O)N1CCC[C@H]1C(=O)N[C@@H](Cc1ccccc1)C(=O)O)C(C)C (H-NRV[Tyr(3-I)]VHPF-OH)	33
CC[C@H](C)[C@H](NC(=O)[C@H](Cc1cc(C)c(O)c(C)c1)NC(=O)[C@@H](NC(=O)[C@H](CCCNC(=N)N)NC(=O)[C@@H](N)CC(N)=O)C(C)C)C(=O)N[C@@H](Cc1cnc[nH]1)C(=O)N1CCC[C@H]1C(=O)N[C@@H](Cc1ccccc1)C(=O)O (H-NRV[X1]IHPF-OH)	2.2
CC[C@H](C)[C@H](NC(=O)[C@@H](Cc1cc(C)c(O)c(C)c1)NC(=O)[C@@H](NC(=O)[C@H](CCCNC(=N)N)NC(=O)[C@@H](N)CC(N)=O)C(C)C)C(=O)N[C@@H](Cc1cnc[nH]1)C(=O)N1CCC[C@H]1C(=O)N[C@@H](Cc1ccccc1)C(=O)O (H-NRV[X4]IHPF-OH)	1.4
